The source made the active and inactive calls. The rule behind the calls is not given here.

In the test the target is Vacuolar aminopeptidase 1 (Saccharomyces cerevisiae (strain ATCC 204508 / S288c)) (UniProt P14904). Put plainly: yeast TOR reporter LAP4 modulators, analogs – cell-based, KU SAR set, flow cytometry, SAR follow-up (AID 488795). To be noted: S. cerevisiae Lap4-GFP reporter, flow cytometry MCF. On the technique in general: In flow cytometry, cells or beads pass a laser one at a time.
Vacuolar aminopeptidase 1 (Saccharomyces cerevisiae (strain ATCC 204508 / S288c)), sequence (P14904 whole entry, looked up): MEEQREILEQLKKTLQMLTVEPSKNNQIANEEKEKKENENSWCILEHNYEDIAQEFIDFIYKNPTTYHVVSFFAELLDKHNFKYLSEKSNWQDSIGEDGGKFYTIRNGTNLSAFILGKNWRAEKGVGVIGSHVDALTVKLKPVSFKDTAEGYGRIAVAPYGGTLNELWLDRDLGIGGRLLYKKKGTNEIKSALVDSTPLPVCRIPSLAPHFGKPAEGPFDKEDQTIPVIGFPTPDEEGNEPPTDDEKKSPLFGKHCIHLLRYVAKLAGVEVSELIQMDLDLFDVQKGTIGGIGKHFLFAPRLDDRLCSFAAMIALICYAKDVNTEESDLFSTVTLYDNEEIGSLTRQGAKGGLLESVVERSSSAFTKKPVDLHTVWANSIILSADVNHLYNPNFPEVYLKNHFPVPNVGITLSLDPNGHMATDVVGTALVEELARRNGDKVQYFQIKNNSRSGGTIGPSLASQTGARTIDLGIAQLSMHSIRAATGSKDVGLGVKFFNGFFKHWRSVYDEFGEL
As a reminder, the EC50 is the concentration giving half of the maximal effect. As for `CCOC(=O)CCS(=O)(=O)c1nc(-c2ccccc2)cc(C(F)(F)F)n1`, the 50% effective concentration (EC50) is 27.6 µM.

With `Nc1cc(Nc2cccc(F)c2)nc(NCc2ccccc2)n1`, the EC50 entry was “inactive”.

Consider `O=C(CCc1ccccc1)NNC(=S)NC(=O)c1ccccc1`, for which the concentration for a half-maximal effect (EC50) is 3.42 µM.

Take `Oc1c(I)cc(I)c2cccnc12`: the EC50 entry was “inactive”.

`Clc1ccc(N=c2ssnc2Cl)cc1`: the EC50 is 3.73 µM.

In the case of `CN1CCN(C(=O)c2cc(COc3c(F)cccc3F)on2)CC1c1ccccc1` (centres undefined), the EC50 result was “inactive”.

Regarding `O=C(Nc1nc(-c2ccccn2)cs1)C1COc2ccccc2O1` (centres undefined), the EC50 result was “inactive”.

Turning to `CCSc1nnc(NC(=O)c2ccccn2)s1`, the EC50 entry is “inactive”.

Turning to `CNc1nc(N)c([N+](=O)[O-])c(Nc2cccc(F)c2)n1`, the EC50 is 8.37 µM.

`O=S(=O)(CCN(CCS(=O)(=O)C(F)(F)F)CC1CCCO1)C(F)(F)F` (centres undefined): the 50% effective concentration (EC50) was 12.5 µM.

On to `COc1ccc([N+](=O)[O-])c(S(=O)(=O)c2ccccc2)n1`, for which the EC50 was 11.9 µM.

As to `O=[N+]([O-])c1ccc(S(=O)(=O)c2cccc(C(F)(F)F)c2)nc1`, the concentration for a half-maximal effect (EC50) was 1.94 µM.

Take `CCCCC(=O)NNC(=S)NC(=O)c1ccc(C)cc1`: the EC50 was 4.05 µM.

For `CCOC(=O)CSC1=NC(=O)/C(=C\c2ccc(Cl)cc2)S1`, the EC50 entry was “inactive”.

On to `COC(=O)CCS(=O)(=O)c1nc(-c2ccccc2)cc(C(F)(F)F)n1`, for which the EC50 was 19.9 µM.

On to `O=c1cc(CSc2ccc(Cl)cc2)nc(-c2ccccn2)[nH]1`, for which the 50% effective concentration (EC50) was 1.22 µM.

As for `COc1ccc([N+](=O)[O-])c(S(=O)(=O)c2ccc(Cl)cc2)n1`, the half-maximal effective concentration (EC50) was 3.53 µM.

Take `Cc1ccc2nc(Cl)c3nnnn3c2c1`: the concentration giving a half-maximal response (EC50) was 4.47 µM.

For the compound `O=[N+]([O-])c1ccc(O)c2ncccc12`, the EC50 is 6.57 µM.

With `C/C(=N\NC(=O)c1ccc(C(C)(C)C)cc1)c1ccccn1`, the EC50 entry was “inactive”.

Regarding `O=c1/c(=C/c2cccc3ccccc23)sc2ncnn12`, the EC50 is 4.36 µM.

`CC(C)(C)C(=O)C(Cl)C(=O)Nc1ccccc1` (centres undefined): the 50% effective concentration (EC50) was 6.93 µM.

Consider `CCN(CC)C(=O)Oc1ccnc2cc(Cl)ccc12`, for which the EC50 entry is “inactive”.

Take `CCOC(=O)CS(=O)(=O)c1nc(-c2ccccc2)cc(C(F)(F)F)n1`: the EC50 was 6.32 µM.

Regarding `CSC1=NS(=O)(=O)c2c(C)nn(C)c2S1`, the EC50 result is “inactive”.

Turning to `Nc1cc(Oc2cccc(Cl)c2)nc(NCc2ccccc2)n1`, the EC50 result is “inactive”.

As to `CCCOc1ccc(C(=O)NNC(=S)NC(=O)CC)cc1`, the EC50 is 4.38 µM.

As to `Cc1ccc(S(=O)(=O)c2ccc([N+](=O)[O-])cn2)cc1`, the 50% effective concentration (EC50) was 2.55 µM.

Take `O=C(OCn1ncc(Br)c(Br)c1=O)c1c(F)cccc1F`: the EC50 is 4.33 µM.

In the case of `O=[N+]([O-])c1cc(S(=O)(=O)C(F)(F)F)ccc1Sc1nc2ccccc2s1`, the EC50 is 14 µM.

For `CCC(C)Nc1nc(N)c([N+](=O)[O-])c(Nc2cccc(F)c2)n1` (centres undefined), the EC50 entry was “inactive”.

As to `C/C(=N\NC(=O)c1cccc(Br)c1)c1ccccn1`, the EC50 result is “inactive”.

Turning to `O=C(OCn1ncc(Br)c(Br)c1=O)c1ccc(F)cc1`, the EC50 is 4.01 µM.

With `Cc1ccc(S(=O)(=O)c2ncccc2[N+](=O)[O-])cc1`, the EC50 entry was “inactive”.

Source of the values: PubChem BioAssay AID488795 (NMMLSC, 2010).
